Results as given in PMC5445929 (Journal of fluorine chemistry, 2016).
Read-outs that look alike come from different tables or passages of the source.

Experiments:
[1] = metabolic stability against liver microsomes; type: in vitro ADME; details: 4 h at 37 °C, LC–MS/MS
[2] = metabolic stability against liver microsomes; type: in vitro ADME; details: 4 h at 37 °C, LC–MS/MS; remark: listed apart in the source
[3] = metabolic stability against liver microsomes; type: in vitro ADME, mouse; details: murine microsomes, 4 h at 37 °C, LC–MS/MS
M. tuberculosis H37Rv = details: cited from earlier work
M. tuberculosis Erdman = details: cited from earlier work

Molecule	% metabolic clearance human [1] [%]	% metabolic clearance rat [2] [%]	% metabolic clearance mouse [3] [%]	MIC (μg/mL) H37Rv (M. tuberculosis H37Rv) [µg/mL]	log10 CFU Spleen (M. tuberculosis Erdman; route IP) [n = 5 log10 CFU]	Δ log10 CFU Lungs (test vs control group means) (M. tuberculosis Erdman; route IP) [log10 CFU]	Δ log10 CFU Spleen (test vs control group means) (M. tuberculosis Erdman; route IP) [log10 CFU]	log10 CFU Spleen (M. tuberculosis Erdman; route PO) [n = 5 log10 CFU]	Δ log10 CFU Lungs (test vs control group means) (M. tuberculosis Erdman; route PO) [log10 CFU]	Δ log10 CFU Spleen (test vs control group means) (M. tuberculosis Erdman; route PO) [log10 CFU]	log10 CFU Lungs (M. tuberculosis Erdman; route PO, test compounds 50 mg/kg b.i.d., day 5-15 post infection) [n = 5 log10 CFU]
2-cyclohexyl-5-dimethylamino-6-(4-trifluorimethoxy)benzamido-1,3-benzoxazole [Compound 12]	56	22	71	6.25							
NNC(=O)c1ccncc1 [INH, isoniazid]					0 ± 0	−6.57	−4.96	0 ± 0	−6.31	−3.89	0 ± 0
